Results: patent publication US20230158071A1, “TUMOR COMBINED IMMUNOTHERAPY” (CRAGE medical Co., Limited, priority 2018, published 2023)

Assays:
[1] = test system: 806-mCD28z-CAR-T cells; assay: CCK8 proliferation assay, olaparib on CAR-T cells; format: cell-based, mouse
Experimental: As an effective inhibitor of PARP1, olaparib may inhibit PARP1 to participate in DNA damage repair process. In mouse breast cancer cell lines and mouse T cells and CART cells, different levels of PARP1 expression are detected (FIG. 2B). Therefore, CCK8 proliferation assay is required to detect the effect of olaparib on proliferation of tumor cells and CART cells.
806-m28Z CAR-T cells in Example 1 are taken to spread in a 96-well plate with 1×10^4 cells per well and 100 μl medium. Breast cancer cells E0771-EGFRvIII and 4T1-EGFRvIII are taken to spread in a 96-well plate with 1×10^4 cells per well and 100 μl medium. Different concentrations of olaparib are taken to add to the cells to make 10 concentration gradients (i.e., the treatment concentrations of olaparib are respectively 50 μM, 20 μM, 10 μM, 5 μM, 2.5 μM, 1 μM, 0.1 μM, 0.01 μM, 0.001 μM, 0 μg/ml). After 48 hours of drug treatment for cells of different groups, 10 μl of CCK8 substrate color reagent (Dojindo) is added to each well; after incubating for 1 hour at 37° C., the absorbance at 450 nm is measured by a microplate reader, calculating the cell viability respectively.
The formula for calculating the cell viability is as follows:
Cell viability (%)=[A (adding drug)−A (blank)]/[A (without adding drug)−A (blank)]

[2] = test system: E0771-EGFRvIII orthotopic breast cancer xenografts; assay: Mouse E0771-EGFRvIII orthotopic breast cancer xenografts, olaparib and CAR-T; format: in vivo, C57BL/6 mice; settings: olaparib 50 mg/kg i.p. with CAR-T cells
Experimental: (1) Establishment of mouse orthotopic breast cancer model and respective treatment in groups:
E0771-EGFRvIII cells in the logarithmic growth phase and growing well are collected, inoculating 5×10^5 target cells at right side position of the third pair of accessory breasts of C57BL/6 mice (mice with normal immune system), and the inoculating day is recorded as the first day (i.e., Day 1).
On the 10th day after tumor inoculation (i.e. Day 10), mouse T cells are taken and 806-mCD28z-CAR-T cell line is constructed as described in step 1 of this example.
On the 14th day after tumor inoculation (i.e., Day 14), the volume of the tumor reaches about 150 mm^3, and the mice are divided in groups:
The formula of olaparib stock solution: olaparib is added with 4% DMSO+30% PEG300+66% ddH2O in sequence; a solution of 5 mg/mL is used as the stock solution. […]
(2) Detection of tumor volume. The tumor volume changes of mice are observed and measured continuously, and recorded three times a week. […]
(4) Detection of CAR-T copy number in tumor tissues. Tumor tissues of each group of mice are ground to extract DNA, and the sequence of retroviral vector fragment is detected by Taqman probe method to determine the DNA copy number of 806-mCD28z-CAR. […]

Compound: O=C(c1cc(Cc2n[nH]c(=O)c3ccccc23)ccc1F)N1CCN(C(=O)C2CC2)CC1 [olaparib]
- proliferation of 806-mCD28z-CAR-T cells ([1]; 1 μM olaparib): not affected
- inhibition rate of proliferation of 806-mCD28z-CAR-T cells ([1]; 2.5 μM and higher concentration of olaparib, 48 hours, CCK8): ~80%
- concentration that may inhibit the growth of CAR-T cells ([1]; in vitro): higher than 2.5 μM
- proliferation of 806-mCD28z-CAR-T cells ([1]; olaparib): inhibited
- toxicity of combining olaparib with CAR-T cell therapy (from body weights) [2]: do not cause significant toxicity
